Each molecule was assayed against T1, Gonadotropin-releasing hormone receptor (Rattus norvegicus, UniProt P30969) (assay: Concentration of the peptide which displaces 50% of 125 I-[D-Lys6] gonadotropin-releasing hormone bound to rat pituitary membranes).
T1 sequence (P30969 whole entry): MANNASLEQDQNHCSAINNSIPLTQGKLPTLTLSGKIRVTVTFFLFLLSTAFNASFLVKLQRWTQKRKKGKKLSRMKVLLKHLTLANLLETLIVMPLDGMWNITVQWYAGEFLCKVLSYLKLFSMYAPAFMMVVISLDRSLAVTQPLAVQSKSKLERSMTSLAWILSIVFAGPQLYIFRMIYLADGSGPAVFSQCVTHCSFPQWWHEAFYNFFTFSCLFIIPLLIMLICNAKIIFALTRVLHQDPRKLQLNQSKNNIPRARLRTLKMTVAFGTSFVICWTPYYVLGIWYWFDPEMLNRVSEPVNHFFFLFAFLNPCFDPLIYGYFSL
Assay type: cell membranes, Membrane

Question: `CC(=O)N[C@H](Cc1ccc2ccccc2c1)C(=O)N[C@H](Cc1ccc(Cl)cc1)C(=O)N[C@H](Cc1ccccn1)C(=O)Nc1ccccc1C(=O)N[C@@H](CCCNC(=N)N)C(=O)N1CCC[C@H]1C(=O)N[C@H](C)C(N)=O` was tested. Which IC50 did it give?
Answer: 140 nM

Question: For `CC(=O)N[C@H](Cc1ccc2ccccc2c1)C(=O)N[C@H](Cc1ccc(Cl)cc1)C(=O)N[C@H](Cc1ccccn1)C(=O)N[C@H](C)C(=O)N[C@@H](CCCNC(N)=O)C(=O)N1CCC[C@H]1C(=O)N[C@H](C)C(N)=O`, which IC50 is on record?
Answer: 23 nM

Question: For `CC(=O)N[C@H](Cc1ccc2ccccc2c1)C(=O)N[C@H](Cc1ccc(Cl)cc1)C(=O)N[C@H](Cc1ccccn1)C(=O)N[C@H](CCCNC(=N)N)C(=O)N1CCC[C@H]1C(=O)N[C@H](C)C(N)=O`, which IC50 is on record?
Answer: 70 nM

Question: How did the IC50 turn out when `CC(=O)N[C@H](Cc1ccc2ccccc2c1)C(=O)N[C@H](Cc1ccc(Cl)cc1)C(=O)N[C@H](Cc1cccnc1)C(=O)N1CCC[C@H]1C(=O)N[C@@H](CCCN=C(N)N)C(=O)N1CCC[C@H]1C(=O)N[C@H](C)C(N)=O` was run?
Answer: 110 nM

Question: With `CC(=O)N[C@H](Cc1ccc2ccccc2c1)C(=O)N[C@H](Cc1ccc(Cl)cc1)C(=O)N[C@H](Cc1ccccn1)C(=O)N(C)CC(=O)N[C@@H](CCCNC(=N)N)C(=O)N1CCC[C@H]1C(=O)N[C@H](C)C(N)=O` as the molecule, how does the IC50 read?
Answer: 31 nM

Question: How did the IC50 turn out when `CC(=O)N[C@H](Cc1ccc2ccccc2c1)C(=O)N[C@H](Cc1ccc(Cl)cc1)C(=O)N[C@H](Cc1ccccn1)C(=O)N[C@H](CCCN=C(N)N)C(=O)N[C@@H](CCCNC(N)=O)C(=O)N1CCC[C@H]1C(=O)N[C@H](C)C(N)=O` was run?
Answer: 72 nM

Question: With `CC(=O)N[C@H](Cc1ccc2ccccc2c1)C(=O)N[C@H](Cc1ccc(Cl)cc1)C(=O)N[C@H](Cc1ccccn1)C(=O)NCCC(=O)N[C@@H](CCCNC(=N)N)C(=O)N1CCC[C@H]1C(=O)N[C@H](C)C(N)=O` as the molecule, how does the IC50 read?
Answer: 38 nM

Question: Which IC50 does the source give for `CC(=O)N[C@H](Cc1ccc2ccccc2c1)C(=O)N[C@H](Cc1ccc(Cl)cc1)C(=O)N[C@H](Cc1ccccn1)C(=O)N[C@H](C)C(=O)N[C@@H](CCCCNC(C)C)C(=O)N1CCC[C@H]1C(=O)N[C@H](C)C(N)=O` here?
Answer: 130 nM

Question: `CC(=O)N[C@H](Cc1ccc2ccccc2c1)C(=O)N[C@H](Cc1ccc(Cl)cc1)C(=O)N[C@H](Cc1ccccn1)C(=O)N[C@@H](C)C(=O)N[C@@H](CCCNC(=N)N)C(=O)N1CCC[C@H]1C(=O)N[C@H](C)C(N)=O` was tested. Which IC50 did it give?
Answer: 28 nM

Question: With `CC(=O)N[C@@H](Cc1ccc2ccccc2c1)C(=O)N[C@H](Cc1ccc(Cl)cc1)C(=O)N[C@H](Cc1ccccn1)C(=O)N[C@H](CCCCN)C(=O)N1CCC[C@@H]1C(=O)N[C@@H](C)C(N)=O` as the molecule, how does the IC50 read?
Answer: 550 nM

Question: `CCCC[C@H](NC(=O)[C@@H](C)NC(=O)[C@@H](Cc1ccccn1)NC(=O)[C@@H](Cc1ccc(Cl)cc1)NC(=O)[C@@H](Cc1ccc2ccccc2c1)NC(C)=O)C(=O)N1CCC[C@H]1C(=O)N[C@H](C)C(N)=O` was tested. Which IC50 did it give?
Answer: 88 nM

Question: How did the IC50 turn out when `CC(=O)N[C@H](Cc1ccc2ccccc2c1)C(=O)N[C@H](Cc1ccc(Cl)cc1)C(=O)N[C@H](Cc1ccccn1)C(=O)N[C@H](C)C(=O)N[C@@H](CCCNC(=N)N)C(=O)N1CCC[C@H]1C(=O)N[C@H](C)C(N)=O` was run?
Answer: 17 nM

Question: `C[C@@H](NC(=O)[C@@H]1CCCN1C(=O)[C@H](CCCNC(=N)N)NC(=O)CNC(=O)[C@@H](Cc1ccccc1)NC(=O)[C@@H](Cc1ccccc1)NC(=O)[C@@H](Cc1ccc2ccccc2c1)NC(=O)OCC1c2ccccc2-c2ccccc21)C(N)=O` was tested. Which IC50 did it give?
Answer: 2200 nM

Question: Which IC50 does the source give for `CC(=O)N[C@H](Cc1ccc2ccccc2c1)C(=O)N[C@H](Cc1ccc(Cl)cc1)C(=O)N[C@H](Cc1ccccn1)C(=O)N[C@@H](CCCN=C(N)N)C(=O)N1CCC[C@H]1C(=O)N[C@H](C)C(N)=O` here?
Answer: 130 nM

Question: With `CC(=O)N[C@H](Cc1ccc2ccccc2c1)C(=O)N[C@H](Cc1ccc(Cl)cc1)C(=O)N[C@H](Cc1ccccn1)C(=O)NCC(=O)N1CCC[C@H]1C(=O)N[C@H](C)C(N)=O` as the molecule, how does the IC50 read?
Answer: 45 nM

Question: `CC(=O)N[C@H](Cc1ccc2ccccc2c1)C(=O)N[C@H](Cc1ccc(Cl)cc1)C(=O)N[C@H](Cc1ccccn1)C(=O)N[C@H](C)C(=O)N1CCC[C@H]1C(=O)N[C@H](C)C(N)=O` was tested. Which IC50 did it give?
Answer: 1500 nM

Question: Which IC50 does the source give for `CC(=O)N[C@H](Cc1ccccc1)C(=O)N[C@H](Cc1ccccc1)C(=O)N[C@H](Cc1ccccc1)C(=O)NCC(=O)N[C@@H](CCCNC(=N)N)C(=O)N1CCC[C@H]1C(=O)N[C@H](C)C(N)=O` here?
Answer: 230 nM

Question: `CC(=O)N[C@H](Cc1ccc2ccccc2c1)C(=O)N[C@H](Cc1ccc(Cl)cc1)C(=O)N[C@H](Cc1ccccn1)C(=O)N[C@H](C)C(=O)N[C@@H](CCCCN)C(=O)N1CCC[C@H]1C(=O)N[C@H](C)C(N)=O` was tested. Which IC50 did it give?
Answer: 20 nM

Question: With `CC(=O)N[C@H](Cc1ccc2ccccc2c1)C(=O)N[C@H](Cc1ccc(Cl)cc1)C(=O)N[C@H](Cc1ccccn1)C(=O)N[C@@H](CC(C)C)C(=O)N[C@@H](CCCN=C(N)N)C(=O)N1CCC[C@H]1C(=O)N[C@H](C)C(N)=O` as the molecule, how does the IC50 read?
Answer: 81 nM

Question: Which IC50 does the source give for `CC(=O)N[C@H](Cc1cccc2ccccc12)C(=O)N[C@H](Cc1ccccc1)C(=O)N[C@H](Cc1ccccc1)C(=O)NCC(=O)N[C@@H](CCCNC(=N)N)C(=O)N1CCC[C@H]1C(=O)N[C@H](C)C(N)=O` here?
Answer: 370 nM

Question: For `CC(=O)N[C@H](Cc1ccc2ccccc2c1)C(=O)N[C@H](Cc1ccc(Cl)cc1)C(=O)N[C@H](Cc1ccccn1)C(=O)NCC(=O)N[C@@H](CCCN=C(N)N)C(=O)N1CCC[C@H]1C(=O)N[C@H](C)C(N)=O`, which IC50 is on record?
Answer: 7 nM

Question: With `CC(=O)N[C@H](Cc1ccc2ccccc2c1)C(=O)N[C@H](Cc1ccc(Cl)cc1)C(=O)N[C@H](Cc1ccccn1)C(=O)N[C@H](CC(C)C)C(=O)N[C@@H](CCCNC(=N)N)C(=O)N1CCC[C@H]1C(=O)N[C@H](C)C(N)=O` as the molecule, how does the IC50 read?
Answer: 74 nM

Question: How did the IC50 turn out when `CC(=O)N[C@H](Cc1ccc2ccccc2c1)C(=O)N[C@H](Cc1ccc(Cl)cc1)C(=O)N[C@H](Cc1ccccn1)C(=O)N[C@H](C)C(=O)N[C@@H](CCCCNNC(=O)c1cccnc1)C(=O)N1CCC[C@H]1C(=O)N[C@H](C)C(N)=O` was run?
Answer: 14 nM

Question: How did the IC50 turn out when `CC(=O)N[C@H](Cc1ccc2ccccc2c1)C(=O)N[C@H](Cc1ccc(Cl)cc1)C(=O)N[C@H](Cc1ccccn1)C(=O)NC1(C(=O)N[C@@H](CCCN=C(N)N)C(=O)N2CCC[C@H]2C(=O)N[C@H](C)C(N)=O)CCC1` was run?
Answer: 42 nM

Question: With `CC(=O)N[C@@H](Cc1ccc2ccccc2c1)C(=O)N[C@H](Cc1ccc(Cl)cc1)C(=O)N[C@H](Cc1ccccn1)C(=O)N[C@@H](Cc1ccc(O)cc1)C(=O)N[C@H](CCCN=C(N)N)C(=O)N1CCC[C@@H]1C(=O)N[C@@H](C)C(N)=O` as the molecule, how does the IC50 read?
Answer: 25 nM

Question: With `CC(=O)N[C@H](Cc1ccc2ccccc2c1)C(=O)N[C@H](Cc1ccc(Cl)cc1)C(=O)N[C@H](Cc1ccccn1)C(=O)NCC(=O)N[C@H](CCCNC(=N)N)C(=O)N1CCC[C@H]1C(=O)N[C@H](C)C(N)=O` as the molecule, how does the IC50 read?
Answer: 16 nM

Question: `CC(=O)N[C@H](Cc1ccc2ccccc2c1)C(=O)N[C@H](Cc1ccccc1)C(=O)N[C@H](Cc1ccccc1)C(=O)NCC(=O)N[C@@H](CCCN=C(N)N)C(=O)N1CCC[C@H]1C(=O)N[C@H](C)C(N)=O` was tested. Which IC50 did it give?
Answer: 28 nM

Question: For `C[C@@H](NC(=O)[C@@H]1CCCN1C(=O)[C@H](CCCN=C(N)N)NC(=O)CNC(=O)[C@@H](Cc1ccccc1)NC(=O)[C@@H](Cc1ccccc1)NC(=O)[C@H](N)Cc1ccc2ccccc2c1)C(N)=O`, which IC50 is on record?
Answer: 280 nM

Question: How did the IC50 turn out when `CC(=O)N[C@H](Cc1c[nH]c2ccccc12)C(=O)N[C@H](Cc1ccccc1)C(=O)N[C@H](Cc1ccccc1)C(=O)NCC(=O)N[C@@H](CCCN=C(N)N)C(=O)N1CCC[C@H]1C(=O)N[C@H](C)C(N)=O` was run?
Answer: 450 nM
